# Source: patent US10472341B2, “Bicyclic tetrahydrothiazepine derivatives useful for the treatment of neoplastic and/or infectious diseases” (APEIRON BIOLOGICS AG, priority 2015, dated 2019)
# Structures can show the parent of a compound that is named as a salt.
# How the values were obtained:
# OT-II cells = test: OT-II transfer model, oral administration: antigen-specific T cell proliferation and CD69; type: in vivo, mouse; conditions: mice
# Method: (§1) • Single cell suspension of splenocytes was prepared from the spleen by rinsing cells through a sterile 70 μm filter with PBS • Cells were collected by centrifugation in an 15 ml tube, the cell pellet was resuspended in 1 ml of Erylyse buffer and incubated at room temperature for 5 minutes, tubes were filled up with PBS and cells were washed twice • Cells were counted and resuspended in the desired buffer volume for MACS-enrichment or flow cytometric analysis Isolation of CD4 T Cells from OT-II Transgenic Mice • Splenocytes were resuspended in MACS buffer ([…] MACS-buffer/10^7 cells) • CD4 T cells were isolated using the CD4 T cell isolation kit (Miltenyi) with LS-columns following manufacturer's recommendations CFSE-Labeling of T Cells • Cells were resuspended in PBS with 0.1% BSA at 1×10^7 cells/ml and CFSE-solution was added to final concentration of 2.5 μM CFSE • Incubated for 10 min at 37° C., swung each 2 min • Same volume of FCS added and incubated for 5 min at room temperature • Cells were washed twice with RMPI-10% FCS medium • Cells were counted and resuspended in PBS or medium at desired concentration OT-II Transfer • Day 0: OT-II cells were transferred in PBS (3*10^6. Cells in 100 μl PBS) by retro-orbital injection • Day 1: WT mice got OVA vaccinated (subcut. flank, 10 μg LPS, 2 μg OVA per animal) • 2 & 4 h later compounds were administrated; for oral dosing compound was used as suspension (0.5% methylcellulose in water), for i.v. dosing compound was solubilized in DMSO and diluted with PBS • Day 2: compounds were administrated twice in the morning (with 2 h time interval) • Day 3: Mice were sacrificed & splenocytes were isolated • T cell proliferation & phenotype was determined by flow cytometry • Flow cytometry-Staining (all Abs purchased from eBioscience and used as recommended by the manufacturer): B220-eF450, CD4-PE, CD25PerCPCy5.5, CD69-PC7, TCRVa2-APC, CD8-AF700, CD3-eF780; CFSE; 7-AAD • Acquisition on Beckman-Coulter Gallios, Analysis using Kaluza Software OT-I Transfer to Mice with B16-F10-OVA Tumors • Day 0: 100000 B16-F10-OVA tumor cells were inoculated subcutaneously at the flank of WT-mice • Day 7: OT-I cells were transferred in PBS (3*10^6. […]
# OT-I T cells = test: OT-I transfer to mice with B16-F10-OVA tumors: tumor antigen-specific T cell proliferation; type: in vivo, mouse; conditions: B16-F10-OVA tumor bearing mice; for OT-I T cell proliferation: 10 mg/kg orally; for Proliferation [% proliferated OT-I T cells]: 10 mg/kg dosed orally
# Method: as §1
# CD8 T cells [1] = test: Reactivity of isolated CFSE-labeled CD8 T cells to TCR stimulation (anti-CD3/anti-CD28): cytokines, proliferation, CD25; type: cell-based, human; conditions: for CD25 expression [% positive cells] Average / Cell Proliferation [Cell divisions/cell] Average / IFN-gamma production [ng/ml] Average / IL-2 production [ng/ml] Average / TNF-alpha production [ng/ml] Average: anti-CD3/anti-CD28
# Method: • Buffy coat content was transferred to sterile plastic bottle and filled up to 480 ml with PBS, and distributed equally to 16×50 ml tubes (30 ml/tube) • Underlayed with ˜11 ml Lymphoprep and centrifuged 20 min (2200 rpm) • The interphase containing lymphocytes was taken off with transfer pipette, cells were washed twice with PBS and pooled to one tube to determine cell count (Coulter Diff ACT) Isolation of Immune Cell Subfractions from PBMCs by MACS • PBMCs were resuspended in MACS buffer (80 μl MACS-buffer/10^7 cells) and cells were isolated with Auto-MACS device using respective kits following manufacturer's recommendations TCR Stimulation and Measurement of T Cell Activation
# Isolated T cells were plated in Xvivo medium at 1.5*10 ^5 cells per in 96 well culture plates and TCR-stimulated with anti-CD3/28 mAbs in the presence of compound as indicated. Cytokine production was determined at 24 h or 48 h following TCR stimulation in cell culture supernatants using commercially available ELISA kits (BD and eBioscience) as recommended by the manufacturer. T cell proliferation and CD25 expression (CD25-PC5 reagent purchased from Beckman Coulter) was determined by flow cytometry (Beckman-Coulter FC500) and analysed with Kaluza Software. For measurement of CD69 expression, isolated CD4 and CD8 T cells were plated in Xvivo medium at […] per in 96 well culture plates and TCR-stimulated with anti-CD3/28 mAbs in the presence of compound. CD69 expression was determined at 24 h following TCR stimulation by flow cytometry (CD4eF450, CD8APCeF780 and CD69-PC7 reagent purchased from eBioscience) and analysed with Kaluza Software.
# Isolated CD8 T cells were CFSE-labeled and stimulated with anti-CD3 and anti-CD28 antibodies.
# CD8 T cells [2] = test: CD69 expression on aCD3/aCD28 stimulated isolated human CD8 T cells (flow cytometry); type: cell-based; conditions: T-cell, 24 h after TCR stimulation, read-out: Activity Class CD69 (CD8)
# Summary of the method: (§2)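 Isolated CD4 and CD8 T cells plated at 80000 cells per well in Xvivo medium and stimulated with anti-CD3/28 mAbs in presence of compound. CD69 expression measured by flow cytometry 24 h after TCR stimulation.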
# CD4 T cells = test: CD69 expression on aCD3/aCD28 stimulated isolated human CD4 T cells (flow cytometry); type: cell-based; conditions: 24 h after TCR stimulation, read-out: Activity Class CD69 (CD4)
# Summary of the method: as §2
structure (smiles),measurement,setting,value
"N[C@H]1CS(=O)(=O)c2cc(F)c(C(=O)NC3CC3(F)F)cc2N(Cc2ccc(Cl)cc2)C1=O (stereo partly drawn) [Example 1, (3R)-3-amino-5-[(4-chlorophenyl)methyl]-N-(2,2-difluorocyclopropyl)-8-fluoro-1,1,4-trioxo-2,3,4,5-tetrahydro-1λ^6,5-benzothiazepine-7-carboxamide hydrochloride]",Proliferated OT-II cells [% gated] average,"OT-II cells; LPS & OVA vaccination, 10 mg/kg dosed orally, splenocytes day 3",29.03 % gated
same,CD69 on transferred OT-II cells,"OT-II cells; LPS & OVA, 10 mg/kg orally",CD69 was not further upregulated
same,Proliferation of OT-II cells,"OT-II cells; LPS & OVA, 10 mg/kg orally, versus no compound",highly significantly (p<0.00001) enhanced
same,OT-I T cell proliferation,OT-I T cells; spleen,significantly (p=0.006) increased
same,OT-I T cell proliferation,OT-I T cells; tumor-draining lymphnodes,highly significantly (p=0.0002) enhanced
same,Proliferation [% proliferated OT-I T cells],OT-I T cells; Lymph node,12.28%
same,Proliferation [% proliferated OT-I T cells],OT-I T cells; Spleen,8.62%
"CCCCNC(=O)c1ccc2c(c1)N(Cc1ccc(OC(F)(F)F)cc1)C(=O)[C@@H](N)CS2(=O)=O.Cl [Example 67, (3R)-3-amino-N-butyl-1,1,4-trioxo-5-{[4-(trifluoromethoxy)phenyl]methyl}-2,3,4,5-tetrahydro-1λ^6,5-benzothiazepine-7-carboxamide hydrochloride]",CD25 expression [% positive cells] Average,CD8 T cells [1]; 0.05 μM,61.07 % positive cells
same,Cell Proliferation [Cell divisions/cell] Average,CD8 T cells [1]; 0.05 μM,1.57 Cell divisions/cell
same,IFN-gamma production [ng/ml] Average,CD8 T cells [1]; 0.05 μM,0.14 ng/mL
same,IL-2 production [ng/ml] Average,CD8 T cells [1]; 0.05 μM,1.17 ng/mL
same,TNF-alpha production [ng/ml] Average,CD8 T cells [1]; 0.05 μM,1.09 ng/mL
same,CD25 expression [% positive cells] Average,CD8 T cells [1]; 0.1 μM,64.24 % positive cells
same,Cell Proliferation [Cell divisions/cell] Average,CD8 T cells [1]; 0.1 μM,1.72 Cell divisions/cell
same,IFN-gamma production [ng/ml] Average,CD8 T cells [1]; 0.1 μM,0.22 ng/mL
same,IL-2 production [ng/ml] Average,CD8 T cells [1]; 0.1 μM,2.32 ng/mL
same,TNF-alpha production [ng/ml] Average,CD8 T cells [1]; 0.1 μM,1.55 ng/mL
same,CD25 expression [% positive cells] Average,CD8 T cells [1]; 0.25 μM,68.81 % positive cells
same,Cell Proliferation [Cell divisions/cell] Average,CD8 T cells [1]; 0.25 μM,1.84 Cell divisions/cell
same,IFN-gamma production [ng/ml] Average,CD8 T cells [1]; 0.25 μM,0.31 ng/mL
same,IL-2 production [ng/ml] Average,CD8 T cells [1]; 0.25 μM,4.01 ng/mL
same,TNF-alpha production [ng/ml] Average,CD8 T cells [1]; 0.25 μM,2.16 ng/mL
same,CD25 expression [% positive cells] Average,CD8 T cells [1]; 0.5 μM,67.89 % positive cells
same,Cell Proliferation [Cell divisions/cell] Average,CD8 T cells [1]; 0.5 μM,1.88 Cell divisions/cell
same,IFN-gamma production [ng/ml] Average,CD8 T cells [1]; 0.5 μM,0.43 ng/mL
same,IL-2 production [ng/ml] Average,CD8 T cells [1]; 0.5 μM,7.64 ng/mL
same,TNF-alpha production [ng/ml] Average,CD8 T cells [1]; 0.5 μM,3.13 ng/mL
same,CD25 expression [% positive cells] Average,CD8 T cells [1]; 1 μM,71.00 % positive cells
same,Cell Proliferation [Cell divisions/cell] Average,CD8 T cells [1]; 1 μM,1.94 Cell divisions/cell
same,IFN-gamma production [ng/ml] Average,CD8 T cells [1]; 1 μM,0.61 ng/mL
same,IL-2 production [ng/ml] Average,CD8 T cells [1]; 1 μM,11.30 ng/mL
same,TNF-alpha production [ng/ml] Average,CD8 T cells [1]; 1 μM,4.04 ng/mL
same,CD25 expression [% positive cells] Average,CD8 T cells [1]; 2.5 μM,71.35 % positive cells
same,Cell Proliferation [Cell divisions/cell] Average,CD8 T cells [1]; 2.5 μM,1.93 Cell divisions/cell
same,IFN-gamma production [ng/ml] Average,CD8 T cells [1]; 2.5 μM,0.79 ng/mL
same,IL-2 production [ng/ml] Average,CD8 T cells [1]; 2.5 μM,16.77 ng/mL
same,TNF-alpha production [ng/ml] Average,CD8 T cells [1]; 2.5 μM,5.37 ng/mL
same,CD25 expression [% positive cells] Average,CD8 T cells [1]; 5 μM,71.76 % positive cells
same,Cell Proliferation [Cell divisions/cell] Average,CD8 T cells [1]; 5 μM,1.91 Cell divisions/cell
same,IFN-gamma production [ng/ml] Average,CD8 T cells [1]; 5 μM,0.91 ng/mL
same,IL-2 production [ng/ml] Average,CD8 T cells [1]; 5 μM,17.30 ng/mL
same,TNF-alpha production [ng/ml] Average,CD8 T cells [1]; 5 μM,6.68 ng/mL
same,CD25 expression [% positive cells] Average,CD8 T cells [1]; 10 μM,71.90 % positive cells
same,Cell Proliferation [Cell divisions/cell] Average,CD8 T cells [1]; 10 μM,1.83 Cell divisions/cell
same,IFN-gamma production [ng/ml] Average,CD8 T cells [1]; 10 μM,1.15 ng/mL
same,IL-2 production [ng/ml] Average,CD8 T cells [1]; 10 μM,19.63 ng/mL
same,TNF-alpha production [ng/ml] Average,CD8 T cells [1]; 10 μM,7.50 ng/mL
same,CD25 expression [% positive cells] Average,CD8 T cells [1]; 20 μM,69.70 % positive cells
same,Cell Proliferation [Cell divisions/cell] Average,CD8 T cells [1]; 20 μM,1.68 Cell divisions/cell
same,IFN-gamma production [ng/ml] Average,CD8 T cells [1]; 20 μM,1.32 ng/mL
same,IL-2 production [ng/ml] Average,CD8 T cells [1]; 20 μM,19.92 ng/mL
same,TNF-alpha production [ng/ml] Average,CD8 T cells [1]; 20 μM,7.13 ng/mL
same,"production of IL-2, IFN-gamma and TNF-alpha, CD25 expression and T cell proliferation",CD8 T cells [1]; anti-CD3 and anti-CD28,strongly enhanced
"Cl.N[C@H]1CS(=O)(=O)c2cc(F)c(C(=O)NCCCC(F)(F)F)cc2N(Cc2ccc(Cl)cc2)C1=O [Example 70, (3R)-3-amino-5-[(4-chlorophenyl)methyl]-8-fluoro-1,1,4-trioxo-N-(4,4,4-trifluoro-butyl)-2,3,4,5-tetrahydro-1λ^6,5-benzothiazepine-7-carboxamide hydrochloride]",EC50,CD8 T cells [2],< 1580 nM
same,EC50,CD4 T cells,< 1580 nM
